Experiment [1] deals with CEM-SS. In words: Compound was evaluated for cytotoxicity against CEM SS cells infected with HIV-1(LAI strain). As to conditions: Homo sapiens. Format: functional.
Experiment [2] concerns CEM-SS. In words: Compound was evaluated for antiviral activity against CEM SS cells infected with HIV-1(LAI strain). The class given is functional, cell-based. As to conditions: Homo sapiens.

Where only a bound is given, the exact number is not on record here.

What is called CC50 is the concentration at which the toxic effect on the cells reaches its halfway point. Broadly, the IC50 is the point on the concentration scale where inhibition reaches its midpoint. High values mean a need for much substance, low ones inhibition by little substance. As for `CCc1c(C)nc(Cl)c([N+](=O)[O-])c1[S+]([O-])c1cc(C)cc(C)c1` (configuration not stated), the CC50 in experiment [1] came out at 8 µM. This compound also came in with an IC50 in experiment [2] of 3 µM.
In the case of `CCc1c(C)nc(O)c([N+](=O)[O-])c1Sc1cc(C)cc(C)c1`, the CC50 in experiment [1] is above 10 µM. The compound also registered an IC50 in experiment [2] of 6 µM.
Take `Cc1cc(C)cc(Sc2cc(CCCO)nc(O)c2[N+](=O)[O-])c1`: in experiment [1], the CC50 is above 1 µM. Also, in experiment [2], the IC50 was determined as 8 µM.
As for `CCc1c(C)nc(Cl)c([N+](=O)[O-])c1Sc1cc(C)cc(C)c1`, the CC50 in experiment [1] is above 1 µM. In addition, half-maximal inhibition in experiment [2] (IC50) required 8 µM.
On the same counts, the results for `CC(=O)OCCCc1cc(Sc2cc(C)cc(C)c2)c([N+](=O)[O-])c(O)n1` are above 1 µM and 1 µM.
In turn, `Cc1cn([C@H]2C[C@H](N=[N+]=[N-])[C@@H](CO)O2)c(=O)[nH]c1=O` [ZIDOVUDINE] returned a CC50 in experiment [1] above 10 µM. The IC50 in experiment [2] amounted to 3 µM.

These data come from ChEMBL document CHEMBL1129186, “Synthesis of new non-nucleoside inhibitors of HIV-1” (Bioorg Med Chem Lett, 1996).
